Numbers after ± are expanded uncertainties.
Tests used:
[1] = Liquid, Ebulliometric method (Recirculating still)
[2] = refractive index (Na D-line) (dimensionless); xn = mol fraction of the nth substance listed; settings: 293.15 K, 101 kPa, Liquid, Standard Abbe refractometry

CCCCO [butan-1-ol]
[1]
Settings	vapor or sublimation pressure [kPa]
356.35 K	25.3 ± 0.2
359.45 K	29.3 ± 0.2
362.95 K	33.5 ± 0.3
368.6 K	42.8 ± 0.3
373.45 K	52.5 ± 0.3
377.3 K	61.2 ± 0.3
381.9 K	72.8 ± 0.3
386.05 K	84.9 ± 0.4
391.95 K	105.3 ± 0.4
395.8 K	120.1 ± 0.4

CCCCO [butan-1-ol] + CCCO
[2]
Settings	refractive index
x2 = 0	1.3992 ± 0.0004
x2 = 0.0852	1.3979 ± 0.0004
x2 = 0.1369	1.3971 ± 0.0004
x2 = 0.1987	1.3962 ± 0.0004
x2 = 0.2741	1.395 ± 0.0004
x2 = 0.3521	1.3939 ± 0.0004
x2 = 0.4218	1.3928 ± 0.0004
x2 = 0.5	1.3916 ± 0.0004
x2 = 0.5742	1.3905 ± 0.0004
x2 = 0.6588	1.3892 ± 0.0004
x2 = 0.7123	1.3884 ± 0.0004
x2 = 0.7986	1.3871 ± 0.0004
x2 = 0.862	1.3862 ± 0.0004
x2 = 0.936	1.385 ± 0.0004

CCCO [propan-1-ol]
[1]
Settings	vapor or sublimation pressure [kPa]
337.95 K	25.6 ± 0.2
341.35 K	30.1 ± 0.3
346.15 K	37.4 ± 0.3
350.8 K	46 ± 0.3
353.25 K	51.1 ± 0.3
357.35 K	60.7 ± 0.3
362.45 K	74.7 ± 0.4
366.25 K	86.8 ± 0.4
370.4 K	101.8 ± 0.4
373.65 K	114.9 ± 0.5

CCCO [propan-1-ol] + CCCCO
Settings	refractive index
[2], x1 = 1	1.3841 ± 0.0004
